ChEMBL document CHEMBL1201862, “PubChem BioAssay data set” (2004)
The source made the active and inactive calls.

Legend:
[1] = target: T1, Corticotropin-releasing factor receptor 2/Corticotropin-releasing factor-binding protein (Homo sapiens, UniProt P24387+Q13324); assay: Dose Response confirmation of uHTS hits for small molecule antagonists of the CRF-binding protein and CRF-R2 receptor complex.; type: functional; settings: read-out: IC50_Mean
T1 sequence (Q13324 whole entry): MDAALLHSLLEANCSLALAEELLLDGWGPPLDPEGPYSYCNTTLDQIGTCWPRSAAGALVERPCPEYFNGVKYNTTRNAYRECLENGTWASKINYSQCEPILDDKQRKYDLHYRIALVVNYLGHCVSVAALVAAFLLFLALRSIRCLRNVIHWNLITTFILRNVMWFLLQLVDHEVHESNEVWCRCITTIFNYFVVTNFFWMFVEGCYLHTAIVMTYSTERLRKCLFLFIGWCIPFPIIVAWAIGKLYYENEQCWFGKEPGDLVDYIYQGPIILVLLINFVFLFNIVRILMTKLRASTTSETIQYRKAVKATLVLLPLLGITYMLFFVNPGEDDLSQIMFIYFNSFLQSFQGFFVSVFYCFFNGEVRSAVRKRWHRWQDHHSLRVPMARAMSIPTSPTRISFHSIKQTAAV
T1 sequence (P24387 whole entry): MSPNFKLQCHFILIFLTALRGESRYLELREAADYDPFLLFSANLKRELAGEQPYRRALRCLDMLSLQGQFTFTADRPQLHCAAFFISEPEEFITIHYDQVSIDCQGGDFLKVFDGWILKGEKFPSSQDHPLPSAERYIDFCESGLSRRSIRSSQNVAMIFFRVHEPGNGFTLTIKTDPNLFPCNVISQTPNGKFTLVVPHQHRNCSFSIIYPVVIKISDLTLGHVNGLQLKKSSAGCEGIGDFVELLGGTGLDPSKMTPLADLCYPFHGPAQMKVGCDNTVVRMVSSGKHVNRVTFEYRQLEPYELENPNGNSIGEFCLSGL

[2] = target: T1, Corticotropin-releasing factor receptor 2/Corticotropin-releasing factor-binding protein; assay: activators of CRF receptor 2 with binding protein – uHTS hits, confirmation (AID 602473); type: functional; settings: read-out: EC50_Mean
[3] = target: T2, Cytochrome P450 1A2 (Homo sapiens, UniProt P05177);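 also: PubChem cytochrome P450 panel assay, CYP1A2 panel member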
T2 sequence (P05177 whole entry): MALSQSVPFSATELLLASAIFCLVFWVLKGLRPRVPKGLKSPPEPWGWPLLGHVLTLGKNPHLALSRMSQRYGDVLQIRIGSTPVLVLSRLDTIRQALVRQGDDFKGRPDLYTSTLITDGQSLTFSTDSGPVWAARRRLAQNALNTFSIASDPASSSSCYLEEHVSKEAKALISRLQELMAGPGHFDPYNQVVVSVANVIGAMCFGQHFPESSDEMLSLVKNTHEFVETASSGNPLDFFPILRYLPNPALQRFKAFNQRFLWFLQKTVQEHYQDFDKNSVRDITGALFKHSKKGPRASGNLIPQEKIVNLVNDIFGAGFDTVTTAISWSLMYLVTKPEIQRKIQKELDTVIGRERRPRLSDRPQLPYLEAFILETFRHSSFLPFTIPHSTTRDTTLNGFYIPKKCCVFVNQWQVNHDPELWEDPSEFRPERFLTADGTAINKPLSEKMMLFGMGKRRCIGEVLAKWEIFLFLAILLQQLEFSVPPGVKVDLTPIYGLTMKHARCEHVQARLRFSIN

[4] = target: Cytochrome P450 3A4 (Homo sapiens, UniProt P08684);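 also: CYP3A4 tested as one member of a cytochrome P450 panel screen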
Cytochrome P450 3A4, sequence (P08684 whole entry): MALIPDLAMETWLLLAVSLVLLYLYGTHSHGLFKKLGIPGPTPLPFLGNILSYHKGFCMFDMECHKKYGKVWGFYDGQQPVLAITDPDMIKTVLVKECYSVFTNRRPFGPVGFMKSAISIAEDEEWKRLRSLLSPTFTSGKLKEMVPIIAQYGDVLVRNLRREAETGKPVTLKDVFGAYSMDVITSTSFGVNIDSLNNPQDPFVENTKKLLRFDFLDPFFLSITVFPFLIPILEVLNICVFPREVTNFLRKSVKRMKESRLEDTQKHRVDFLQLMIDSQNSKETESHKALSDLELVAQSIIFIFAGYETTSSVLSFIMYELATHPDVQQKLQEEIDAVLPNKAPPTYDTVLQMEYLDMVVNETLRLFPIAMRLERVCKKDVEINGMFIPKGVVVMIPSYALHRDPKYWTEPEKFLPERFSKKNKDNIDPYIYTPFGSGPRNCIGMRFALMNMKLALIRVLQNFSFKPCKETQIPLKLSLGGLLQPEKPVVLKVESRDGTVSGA

[5] = target: Cytochrome P450 2C9 (Homo sapiens, UniProt P11712)
Cytochrome P450 2C9, sequence (P11712 whole entry): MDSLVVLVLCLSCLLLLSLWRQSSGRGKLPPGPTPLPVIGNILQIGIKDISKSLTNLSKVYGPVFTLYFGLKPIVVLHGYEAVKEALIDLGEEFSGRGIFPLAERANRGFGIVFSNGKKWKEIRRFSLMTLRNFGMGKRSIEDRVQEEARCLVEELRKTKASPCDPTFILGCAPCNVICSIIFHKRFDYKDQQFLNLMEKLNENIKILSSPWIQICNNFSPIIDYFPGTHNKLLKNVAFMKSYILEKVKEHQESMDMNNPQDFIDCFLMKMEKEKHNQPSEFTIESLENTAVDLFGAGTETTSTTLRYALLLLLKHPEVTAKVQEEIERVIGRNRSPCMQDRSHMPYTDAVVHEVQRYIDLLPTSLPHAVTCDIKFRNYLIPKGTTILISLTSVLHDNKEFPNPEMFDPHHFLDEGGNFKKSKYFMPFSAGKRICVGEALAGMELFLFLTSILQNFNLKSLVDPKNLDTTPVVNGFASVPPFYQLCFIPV

[6] = Luminescence Cell-Based Dose Confirmation HTS to Identify Inhibitors of Platelet Dense Granule Release. [Related pubchem assays: 1663 (Primary HTS), 1678 (Summary of Project)]; type: functional
[7] = target: Luciferin 4-monooxygenase (Photinus pyralis, UniProt P08659); assay: inhibition of purified Photinus pyralis luciferase – biochemical, luminescence, dose response (AID 1891)
Luciferin 4-monooxygenase, sequence (P08659 whole entry): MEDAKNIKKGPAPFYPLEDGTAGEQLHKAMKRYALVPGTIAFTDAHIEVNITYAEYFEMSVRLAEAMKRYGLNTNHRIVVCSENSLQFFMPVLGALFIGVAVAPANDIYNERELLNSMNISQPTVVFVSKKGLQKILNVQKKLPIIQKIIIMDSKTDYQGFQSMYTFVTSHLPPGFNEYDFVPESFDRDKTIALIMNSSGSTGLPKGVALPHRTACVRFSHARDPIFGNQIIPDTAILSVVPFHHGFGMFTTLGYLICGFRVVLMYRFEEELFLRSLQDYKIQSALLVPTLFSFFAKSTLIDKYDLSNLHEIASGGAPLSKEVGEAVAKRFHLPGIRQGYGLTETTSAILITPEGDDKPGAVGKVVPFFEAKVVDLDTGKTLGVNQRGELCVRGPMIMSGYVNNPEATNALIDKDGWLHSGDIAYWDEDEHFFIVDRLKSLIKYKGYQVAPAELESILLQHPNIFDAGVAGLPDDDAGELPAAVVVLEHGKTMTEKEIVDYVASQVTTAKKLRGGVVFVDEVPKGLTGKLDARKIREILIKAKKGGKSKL

[8] = target: Cytochrome P450 2D6 (Homo sapiens, UniProt P10635);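 also: CYP2D6 member of a cytochrome P450 panel assay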
Cytochrome P450 2D6, sequence (P10635 whole entry): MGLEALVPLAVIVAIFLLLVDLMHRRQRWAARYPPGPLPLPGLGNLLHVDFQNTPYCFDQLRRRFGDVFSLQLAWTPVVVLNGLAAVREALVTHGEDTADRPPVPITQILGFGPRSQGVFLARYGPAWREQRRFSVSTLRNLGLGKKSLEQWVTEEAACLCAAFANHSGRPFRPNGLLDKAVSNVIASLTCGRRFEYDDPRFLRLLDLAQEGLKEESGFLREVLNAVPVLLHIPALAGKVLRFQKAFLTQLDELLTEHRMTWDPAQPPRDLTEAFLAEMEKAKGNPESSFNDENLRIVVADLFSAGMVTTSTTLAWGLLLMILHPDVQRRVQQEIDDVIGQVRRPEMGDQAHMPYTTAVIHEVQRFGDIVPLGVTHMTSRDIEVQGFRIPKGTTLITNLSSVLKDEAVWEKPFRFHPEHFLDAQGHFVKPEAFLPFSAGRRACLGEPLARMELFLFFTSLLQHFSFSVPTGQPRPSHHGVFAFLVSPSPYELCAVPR

[9] = target: Cytochrome P450 2C19 (Homo sapiens, UniProt P33261); assay: Cytochrome panel assay with activity outcomes. Panel member name: p450-cyp2c19 Compounds with AC50 equal or less than 10 uM are considered active; type: functional; settings: read-out: AC50
Cytochrome P450 2C19, sequence (P33261 whole entry): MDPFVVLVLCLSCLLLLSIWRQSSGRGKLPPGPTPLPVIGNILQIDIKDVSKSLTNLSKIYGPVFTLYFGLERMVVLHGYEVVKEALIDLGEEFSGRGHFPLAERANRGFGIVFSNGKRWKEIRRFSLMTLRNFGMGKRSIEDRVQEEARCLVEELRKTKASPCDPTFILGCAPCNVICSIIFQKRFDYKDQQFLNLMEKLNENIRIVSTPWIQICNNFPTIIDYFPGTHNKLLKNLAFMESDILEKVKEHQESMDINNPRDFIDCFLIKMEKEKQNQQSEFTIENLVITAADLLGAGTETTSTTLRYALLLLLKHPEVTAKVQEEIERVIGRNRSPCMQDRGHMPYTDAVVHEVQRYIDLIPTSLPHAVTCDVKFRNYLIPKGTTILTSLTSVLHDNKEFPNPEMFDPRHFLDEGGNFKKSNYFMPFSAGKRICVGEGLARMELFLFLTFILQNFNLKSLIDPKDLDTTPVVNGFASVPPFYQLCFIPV

[10] = target: T3, Ubiquitin-conjugating enzyme E2 N (Homo sapiens, UniProt P61088); type: functional;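 also: Dose-response confirmation in a TR-FRET assay detecting UBC13-driven polyubiquitin chain formation, inhibition measured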
T3 sequence (P61088 whole entry): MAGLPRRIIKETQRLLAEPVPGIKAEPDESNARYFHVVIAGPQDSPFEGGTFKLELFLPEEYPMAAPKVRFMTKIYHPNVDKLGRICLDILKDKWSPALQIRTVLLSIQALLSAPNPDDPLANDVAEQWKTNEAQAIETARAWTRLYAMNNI

[11] = alpha-synuclein stem-loop luciferase translation blockers – H4 neuroglioma cells, luminescence, confirmation (AID 1988); type: functional, cell-based
[12] = Luminescence Cell-Based Dose Response HTS to Identify Inhibitors of 5'UTR Stem-Loop Driven Prion Protein mRNA Translation in H4 Neuroglioblastoma Cells. [Related pubchem assays: 1827 (Project Summary), 1813 (Primary HTS)]; type: functional
[13] = luciferase reporter signal suppression in cells – H4 neuroglioma cells, luminescence, dose response (AID 1990); type: functional, cell-based
[14] = viability of uninfected HEp-2 cells – cell-based, HTS, cytotoxicity control for RSV inhibitor project, dose response (AID 2410); type: functional; settings: human respiratory syncytial virus
[15] = NIH3T3 cell viability loss – ATP luminescence, mouse fibroblasts, counter-screen, dose response (AID 2010); type: functional, cell-based;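 also: cells exposed to compound for about 90 hours before reading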
[16] = Trypanosoma cruzi growth suppression in host cells – NIH3T3 host cells, beta-gal luminescence, confirmation (AID 2044); type: functional, cell-based;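 also: intracellular parasites grown in NIH/3T3 mouse fibroblasts as host cells; luminescent beta-galactosidase reporter signal from transgenic T. cruzi replicating inside host cells; inhibitors lower the luminescence signal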

SMILES: COc1ccc(C2C3=C(O)CC(C)(C)CC3=Nc3c2c(=O)n(C)c(=O)n3C)cc1OC (stereo not given)
- IC50 [1]: > 47.1 µM (inactive)
- EC50 [2]: > 53 µM (inactive)

SMILES: Cc1ccc(CNc2nc(N)c([N+](=O)[O-])c(Nc3ccc(F)cc3)n2)cc1
- AC50 [3]: 1.12 µM (inconclusive)
- AC50 [4]: 2 µM (inconclusive)
- AC50 [5]: 3.55 µM (inconclusive)

SMILES: Cc1ccccc1N=C(S)c1ccc2ccccc2n1
- EC50 [6]: > 112 µM (not active)
- EC50 [7]: > 112 µM (not active)

SMILES: CCNc1ncc2nc(-c3ccc(OC)cc3)c(=O)n(CCOC)c2n1
- AC50 [3]: 1.26 µM (inconclusive)
- AC50 [4]: 15.8 µM (inconclusive)

SMILES: O=C(CN1CCCCC1)Nc1cccc([N+](=O)[O-])c1
- AC50 [3]: 39.8 µM (inconclusive)
- AC50 [8]: 15.8 µM (inconclusive)
- AC50 [9]: 14.1 µM (inconclusive)

SMILES: Cc1cc(C)c(S(=O)(=O)Nc2cccc(C(F)(F)F)c2)c(C)c1
- AC50 [3]: 39.8 µM (inconclusive)

SMILES: Cc1cccc(N2CCc3c2nc2ccccc2c3N)c1
- IC50 [10]: > 20 µM (inactive)

SMILES: Cc1ccc(-n2nc3c(=O)n(CC(=O)NCc4ccc(C)o4)nc(C)c3c2C)cc1
- EC50 [11]: > 120 µM (not active)
- EC50 [12]: 109 µM (active)
- EC50 [13]: 17.8 µM (active)

SMILES: O=C(CSc1nnc(-c2cccc(S(=O)(=O)N3CCOCC3)c2)n1C1CCCCCC1)NCc1ccccc1
- AC50 [3]: 39.8 µM (inconclusive)
- AC50 [8]: 7.94 µM (inconclusive)
- AC50 [5]: 14.1 µM (inconclusive)
- AC50 [9]: 31.6 µM (inconclusive)

SMILES: Nc1nc2sc3c(c2cc1C(=O)N1CCOCC1)CCCC3
- EC50 [6]: > 112 µM (not active)
- EC50 [7]: > 112 µM (not active)

SMILES: Cc1ccc(NC(=O)c2sccc2C)nc1
- EC50 [6]: 5.98 µM (active)
- EC50 [7]: 13.9 µM (active)

SMILES: CN(C)CCN(C)CCc1ccc(Cl)c(Cl)c1
- AC50 [3]: 39.8 µM (inconclusive)

SMILES: CC1(C)Cc2nc3sc4c(SCC(=O)NCc5ccccc5)ncnc4c3cc2CO1
- EC50 [11]: 3.72 µM (active)
- EC50 [12]: > 120 µM (not active)

SMILES: CCOC(=O)C1=C(c2ccccc2)N=C(S)NC1c1cc([N+](=O)[O-])ccc1OC (stereo not given)
- CC50 [14]: > 50 µM (active)

SMILES: Clc1cccc(-c2nn3c(Cn4cnc5ccccc54)nnc3s2)c1
- CC50 [14]: > 50 µM (active)

SMILES: CS(=O)(=O)N1CCN(c2c(Cl)cccc2[N+](=O)[O-])CC1
- AC50 [3]: 28.2 µM (inconclusive)
- AC50 [5]: 0.251 µM (inconclusive)

SMILES: O=C(O)[C@H]1C[C@@H](CP(=O)(O)O)CCN1
- AC50 [3]: 25.1 µM (inconclusive)

SMILES: CO/C(O)=C1\C(C)=Nc2nnnn2C1c1cc(OC)ccc1OC (stereo not given)
- EC50 [11]: > 120 µM (not active)
- EC50 [12]: 18.3 µM (active)
- EC50 [13]: > 120 µM (not active)

SMILES: Cc1cc(-c2ccc(NC(=O)[C@@H]3CCCC[C@@H]3C(=O)O)c(C)c2)ccc1NC(=O)[C@@H]1CCCC[C@@H]1C(=O)O
- CC50 [14]: 17.9 µM (active)

SMILES: NCC12CC3CC(C1)CC(c1ccc(Cl)cc1)(C3)C2
- EC50 [15]: > 60 µM (inconclusive)
- EC50 [16]: 2.19 µM (active)
- IC50 [10]: > 20 µM (inactive)
